Results published in ChEMBL document CHEMBL1201862, “PubChem BioAssay data set” (2004).
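Briefly, cells in 96-well plates were exposed to five compound concentrations for 48 h, and endpoints were estimated by linear interpolation. GI50 is the concentration that inhibits growth by half.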 Calls of active or inactive are those of the source. No stated cut-off is given here; in the data, active = GI50 up to about 1.1 µM and inactive = higher.

How the values were obtained:
Test in all cases: NCI anticancer screen, dose series, 48 h
ACHN = test system: ACHN
CAKI-1 = test system: CAKI-1
CCRF-CEM = test system: CCRF-CEM
HCC 2998 = test system: HCC 2998
HT-29 = test system: HT-29
IGROV-1 = test system: IGROV-1
M14 = test system: M14
MCF7 = test system: MCF7
MDA-N = test system: MDA-N
MOLT-4 = test system: MOLT-4
NCI-H23 = test system: NCI-H23
OVCAR-5 = test system: OVCAR-5
SF-295 = test system: SF-295
SK-MEL-5 = test system: SK-MEL-5
TK-10 = test system: TK-10
U-251 = test system: U-251
MDA-MB-231 = test system: MDA-MB-231
MDA-MB-435 = test system: MDA-MB-435
A498 = test system: A498
Hs-578T = test system: Hs-578T

Measured: GI50

Cc1cccc2c1nc1n2C(=O)c2ccccc2-1
inactive: ACHN > 100 µM | CAKI-1 > 100 µM | CCRF-CEM > 100 µM | HCC 2998 > 100 µM | HT-29 > 100 µM | IGROV-1 > 100 µM | M14 > 100 µM | MCF7 > 100 µM | MDA-N > 100 µM | MOLT-4 > 100 µM | NCI-H23 > 100 µM | OVCAR-5 > 100 µM | SF-295 > 100 µM | SK-MEL-5 > 100 µM | TK-10 > 100 µM | U-251 > 100 µM

NC(=O)OCc1c(-c2ccccc2)nn(-c2ccccc2)c1COC(N)=O
inactive: CAKI-1 > 100 µM | HCC 2998 > 100 µM | HT-29 > 100 µM | IGROV-1 > 10 µM | M14 > 100 µM | MCF7 > 100 µM | MDA-MB-231 > 100 µM | MDA-MB-435 > 100 µM | MDA-N > 100 µM | NCI-H23 > 100 µM | OVCAR-5 > 100 µM | SF-295 > 100 µM | SK-MEL-5 > 100 µM | TK-10 > 100 µM | U-251 > 100 µM

CCOc1ccc(N/C(=C(/C(Cl)=C(/Cl)NC(C)(C)C)[N+](=O)[O-])n2nnc3ccccc32)cc1
inactive: A498 91.6 µM | ACHN 31.8 µM | CAKI-1 19.3 µM | CCRF-CEM 12.7 µM | HCC 2998 > 100 µM | HT-29 35.1 µM | Hs-578T 11 µM | M14 > 100 µM | MCF7 26.1 µM | MDA-MB-231 17.9 µM | MDA-MB-435 18.2 µM | MOLT-4 > 100 µM | NCI-H23 22.6 µM | OVCAR-5 31.6 µM | SF-295 28.1 µM | U-251 19 µM

CN(C)CCNC(=O)c1cccc2c(NC(CS)C(=O)O)c3ccccc3nc12 (stereo not given)
inactive: A498 > 10 µM | ACHN 4.49 µM | CAKI-1 5.75 µM | CCRF-CEM 6.37 µM | HCC 2998 6.21 µM | HT-29 4.94 µM | IGROV-1 4.88 µM | M14 4.39 µM | MCF7 2.95 µM | MDA-MB-231 6.18 µM | MDA-MB-435 4.49 µM | MDA-N 4.55 µM | MOLT-4 3.17 µM | NCI-H23 8.22 µM | OVCAR-5 4.52 µM | SF-295 5.32 µM | SK-MEL-5 3.07 µM | TK-10 28.8 µM | U-251 6.38 µM

Nc1cc2nc(-c3ccccc3)cn2cn1
inactive: A498 27.9 µM | ACHN > 100 µM | CAKI-1 89.9 µM | CCRF-CEM 86.5 µM | HT-29 47.2 µM | M14 > 100 µM | MCF7 70.1 µM | MDA-MB-231 > 100 µM | MDA-MB-435 > 100 µM | MDA-N > 100 µM | MOLT-4 > 100 µM | NCI-H23 > 100 µM | OVCAR-5 79.6 µM | SF-295 > 100 µM | SK-MEL-5 35.5 µM | TK-10 50.5 µM | U-251 > 100 µM

CCCCS(=O)(=O)CCC(N)P(=O)(O)O (stereo not given)
inactive: ACHN > 100 µM | CAKI-1 > 100 µM | CCRF-CEM > 100 µM | HT-29 > 100 µM | Hs-578T > 100 µM | IGROV-1 > 100 µM | M14 > 100 µM | MCF7 > 100 µM | MDA-MB-435 > 100 µM | MDA-N > 100 µM | MOLT-4 > 100 µM | NCI-H23 > 100 µM | OVCAR-5 > 100 µM | SF-295 > 100 µM | SK-MEL-5 > 100 µM | TK-10 > 100 µM | U-251 > 100 µM

COc1cc(-c2nc(SC)nc3c2CCc2ccccc2-3)cc(OC)c1OC
inactive: A498 > 100 µM | ACHN > 100 µM | CCRF-CEM > 100 µM | HCC 2998 > 100 µM | HT-29 50.1 µM | Hs-578T > 100 µM | IGROV-1 65.3 µM | M14 > 100 µM | MCF7 50.1 µM | MDA-MB-231 28.3 µM | MDA-MB-435 95.1 µM | MOLT-4 30.5 µM | NCI-H23 > 100 µM | OVCAR-5 > 100 µM | SF-295 91 µM | SK-MEL-5 37 µM | U-251 93.1 µM

COC12C=CC(CC1)C1C(=O)c3c(C)c(C)n(C)c3C(=O)C12 (stereo not given)
inactive: A498 > 100 µM | ACHN 90.6 µM | CCRF-CEM > 100 µM | HT-29 > 100 µM | Hs-578T 70.3 µM | IGROV-1 73.5 µM | M14 > 100 µM | MCF7 > 100 µM | MDA-MB-435 83.2 µM | MOLT-4 > 100 µM | NCI-H23 99.5 µM | OVCAR-5 > 100 µM | SF-295 > 100 µM | SK-MEL-5 19.6 µM | TK-10 > 100 µM | U-251 > 100 µM

COC(=O)C1(C(=O)OC)N=C(C)OC1c1ccoc1 (stereo not given)
inactive: A498 > 100 µM | ACHN > 100 µM | CAKI-1 > 100 µM | CCRF-CEM > 100 µM | HCC 2998 > 100 µM | M14 > 100 µM | MCF7 > 100 µM | MDA-MB-435 > 100 µM | MDA-N > 100 µM | MOLT-4 > 100 µM | NCI-H23 > 100 µM | OVCAR-5 > 100 µM | SF-295 > 100 µM | SK-MEL-5 > 100 µM | TK-10 > 100 µM | U-251 > 100 µM

ClCCN(CC#CCCCC#CCN(CCCl)CCCl)CCCl
inactive: A498 12.3 µM | ACHN 3.82 µM | CAKI-1 7.67 µM | CCRF-CEM 2.3 µM | HCC 2998 18.4 µM | HT-29 11.4 µM | IGROV-1 14.2 µM | M14 14.5 µM | MCF7 8.75 µM | MOLT-4 1.66 µM | NCI-H23 6.85 µM | OVCAR-5 11.7 µM | SF-295 11.6 µM | SK-MEL-5 11.3 µM | TK-10 22.8 µM | U-251 8.43 µM

Oc1ccc(O)c(Sc2nnc(CCCCCCCCc3nnc(Sc4cc(O)ccc4O)o3)o2)c1
inactive: A498 > 100 µM | ACHN 28.1 µM | CAKI-1 28.8 µM | HCC 2998 75.5 µM | HT-29 > 100 µM | IGROV-1 96.8 µM | M14 > 100 µM | MCF7 33.8 µM | MDA-MB-231 > 100 µM | MDA-MB-435 18.2 µM | MDA-N 17.3 µM | MOLT-4 49.5 µM | NCI-H23 > 100 µM | OVCAR-5 95.9 µM | SF-295 > 100 µM | SK-MEL-5 > 100 µM | TK-10 > 100 µM | U-251 71.6 µM

CC(C)(O)[C@@H]1CC[C@](C)(C2[C@@H](O)C[C@@]3(C)C4C[C@H](OC5OCC(O)C(O)C5O)[C@H]5C(C)(C)[C@@H](OC6OCC(O)C(O)C6OC6OCC(O)C(O)C6O)CC[C@@]56C[C@@]46CC[C@]23C)O1 (stereo not given in full)
inactive: A498 > 100 µM | CAKI-1 > 100 µM | CCRF-CEM > 100 µM | HCC 2998 > 100 µM | HT-29 > 100 µM | Hs-578T > 100 µM | IGROV-1 > 100 µM | M14 > 100 µM | MCF7 > 100 µM | MDA-MB-231 > 100 µM | MDA-MB-435 > 100 µM | MOLT-4 > 100 µM | NCI-H23 > 100 µM | OVCAR-5 > 100 µM | SF-295 > 100 µM | SK-MEL-5 > 100 µM | U-251 > 100 µM
